Measured values: the kinase profiling compilation of Christmann-Franck et al. (2016)

Experiments:
Assay in all cases: KINOMEscan competition binding
Settings in all cases: compound 10.0 µM
ACVR2A (human) = ACVR2A (human) (UniProt P27037)
AKT2 (human) = AKT2 (human) (UniProt P31751)
ANKK1 (human) = ANKK1 (human) (UniProt Q8NFD2)
AURKB (human) = AURKB (human) (UniProt Q96GD4)
CAMK2A (human) = CAMK2A (human) (UniProt Q9UQM7)
CDK15 (human) = CDK15 (human) (UniProt Q96Q40)
CDK17 (human) = CDK17 (human) (UniProt Q00537)
CDK5 (human) = CDK5 (human) (UniProt Q00535)
CLK2 (human) = CLK2 (human) (UniProt P49760)
CSNK2A1 (human) = CSNK2A1 (human) (UniProt P68400)
DMPK (human) = DMPK (human) (UniProt Q09013)
[1] = test system: EIF2AK4 KD2 (human), Q9P2K8 [S808G]
EPHB1 (human) = EPHB1 (human) (UniProt P54762)
ERBB2 (human) = ERBB2 (human) (UniProt P04626)
ERBB4 (human) = ERBB4 (human) (UniProt Q15303)
HCK (human) = HCK (human) (UniProt P08631)
LATS2 (human) = LATS2 (human) (UniProt Q9NRM7)
LCK (human) = LCK (human) (UniProt P06239)
MAP2K4 (human) = MAP2K4 (human) (UniProt P45985)
MAP3K11 (human) = MAP3K11 (human) (UniProt Q16584)
MAP3K9 (human) = MAP3K9 (human) (UniProt P80192)
MAP4K5 (human) = MAP4K5 (human) (UniProt Q9Y4K4)
MAPK15 (human) = MAPK15 (human) (UniProt Q8TD08)
MAPK9 (human) = MAPK9 (human) (UniProt P45984)
MINK1 (human) = MINK1 (human) (UniProt Q8N4C8)
MKNK2 (human) = MKNK2 (human) (UniProt Q9HBH9)
MUSK (human) = MUSK (human) (UniProt O15146)
MYLK (human) = MYLK (human) (UniProt Q15746)
NEK1 (human) = NEK1 (human) (UniProt Q96PY6)
NTRK1 (human) = NTRK1 (human) (UniProt P04629)
NTRK2 (human) = NTRK2 (human) (UniProt Q16620)
PAK1 (human) = PAK1 (human) (UniProt Q13153)
PDGFRB (human) = PDGFRB (human) (UniProt P09619)
PRKACA (human) = PRKACA (human) (UniProt P17612)
PRKACB (human) = PRKACB (human) (UniProt P22694)
RPS6KA6 KD1 (human) = RPS6KA6 KD1 (human) (UniProt Q9UK32)
SRPK1 (human) = SRPK1 (human) (UniProt Q96SB4)
SRPK2 (human) = SRPK2 (human) (UniProt P78362)
STK17A (human) = STK17A (human) (UniProt Q9UEE5)
STK33 (human) = STK33 (human) (UniProt Q9BYT3)

MAP3K11 (human), sequence (Q16584 whole entry, looked up): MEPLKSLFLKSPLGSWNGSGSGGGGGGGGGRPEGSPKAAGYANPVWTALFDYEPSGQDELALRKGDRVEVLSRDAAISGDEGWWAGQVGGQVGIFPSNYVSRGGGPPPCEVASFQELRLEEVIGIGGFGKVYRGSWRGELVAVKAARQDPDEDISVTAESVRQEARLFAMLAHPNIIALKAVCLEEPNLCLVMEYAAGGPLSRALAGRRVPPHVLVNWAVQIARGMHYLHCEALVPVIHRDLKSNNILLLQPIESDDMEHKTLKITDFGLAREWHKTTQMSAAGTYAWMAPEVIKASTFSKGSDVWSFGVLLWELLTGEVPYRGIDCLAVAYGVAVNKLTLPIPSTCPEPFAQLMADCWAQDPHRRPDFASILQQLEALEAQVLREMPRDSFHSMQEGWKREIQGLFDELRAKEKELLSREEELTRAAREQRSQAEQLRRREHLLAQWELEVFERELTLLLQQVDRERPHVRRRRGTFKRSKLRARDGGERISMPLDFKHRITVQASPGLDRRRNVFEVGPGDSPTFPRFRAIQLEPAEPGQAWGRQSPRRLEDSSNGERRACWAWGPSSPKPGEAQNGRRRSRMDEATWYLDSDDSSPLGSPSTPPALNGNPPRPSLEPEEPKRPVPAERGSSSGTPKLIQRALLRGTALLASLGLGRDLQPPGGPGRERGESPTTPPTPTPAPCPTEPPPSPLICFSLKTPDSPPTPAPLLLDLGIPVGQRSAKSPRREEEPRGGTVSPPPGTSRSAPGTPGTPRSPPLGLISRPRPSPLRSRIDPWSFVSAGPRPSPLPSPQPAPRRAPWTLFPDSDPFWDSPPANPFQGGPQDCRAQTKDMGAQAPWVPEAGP
CLK2 (human), sequence (P49760 whole entry, looked up): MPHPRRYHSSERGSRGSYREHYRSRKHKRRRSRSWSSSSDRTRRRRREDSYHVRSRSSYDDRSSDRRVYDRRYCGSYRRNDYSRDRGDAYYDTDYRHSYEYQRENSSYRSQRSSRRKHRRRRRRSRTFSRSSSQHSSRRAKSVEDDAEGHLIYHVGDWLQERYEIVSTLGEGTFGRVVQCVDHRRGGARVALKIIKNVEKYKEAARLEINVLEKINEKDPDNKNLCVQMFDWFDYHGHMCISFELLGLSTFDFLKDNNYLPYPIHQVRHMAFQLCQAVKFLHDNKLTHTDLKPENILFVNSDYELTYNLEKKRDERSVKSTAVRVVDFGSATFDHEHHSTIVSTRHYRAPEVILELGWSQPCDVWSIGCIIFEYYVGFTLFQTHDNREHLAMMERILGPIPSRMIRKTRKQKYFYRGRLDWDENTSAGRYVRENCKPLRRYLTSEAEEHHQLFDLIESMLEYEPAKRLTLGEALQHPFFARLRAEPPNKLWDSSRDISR
MYLK (human), sequence (Q15746 whole entry, looked up): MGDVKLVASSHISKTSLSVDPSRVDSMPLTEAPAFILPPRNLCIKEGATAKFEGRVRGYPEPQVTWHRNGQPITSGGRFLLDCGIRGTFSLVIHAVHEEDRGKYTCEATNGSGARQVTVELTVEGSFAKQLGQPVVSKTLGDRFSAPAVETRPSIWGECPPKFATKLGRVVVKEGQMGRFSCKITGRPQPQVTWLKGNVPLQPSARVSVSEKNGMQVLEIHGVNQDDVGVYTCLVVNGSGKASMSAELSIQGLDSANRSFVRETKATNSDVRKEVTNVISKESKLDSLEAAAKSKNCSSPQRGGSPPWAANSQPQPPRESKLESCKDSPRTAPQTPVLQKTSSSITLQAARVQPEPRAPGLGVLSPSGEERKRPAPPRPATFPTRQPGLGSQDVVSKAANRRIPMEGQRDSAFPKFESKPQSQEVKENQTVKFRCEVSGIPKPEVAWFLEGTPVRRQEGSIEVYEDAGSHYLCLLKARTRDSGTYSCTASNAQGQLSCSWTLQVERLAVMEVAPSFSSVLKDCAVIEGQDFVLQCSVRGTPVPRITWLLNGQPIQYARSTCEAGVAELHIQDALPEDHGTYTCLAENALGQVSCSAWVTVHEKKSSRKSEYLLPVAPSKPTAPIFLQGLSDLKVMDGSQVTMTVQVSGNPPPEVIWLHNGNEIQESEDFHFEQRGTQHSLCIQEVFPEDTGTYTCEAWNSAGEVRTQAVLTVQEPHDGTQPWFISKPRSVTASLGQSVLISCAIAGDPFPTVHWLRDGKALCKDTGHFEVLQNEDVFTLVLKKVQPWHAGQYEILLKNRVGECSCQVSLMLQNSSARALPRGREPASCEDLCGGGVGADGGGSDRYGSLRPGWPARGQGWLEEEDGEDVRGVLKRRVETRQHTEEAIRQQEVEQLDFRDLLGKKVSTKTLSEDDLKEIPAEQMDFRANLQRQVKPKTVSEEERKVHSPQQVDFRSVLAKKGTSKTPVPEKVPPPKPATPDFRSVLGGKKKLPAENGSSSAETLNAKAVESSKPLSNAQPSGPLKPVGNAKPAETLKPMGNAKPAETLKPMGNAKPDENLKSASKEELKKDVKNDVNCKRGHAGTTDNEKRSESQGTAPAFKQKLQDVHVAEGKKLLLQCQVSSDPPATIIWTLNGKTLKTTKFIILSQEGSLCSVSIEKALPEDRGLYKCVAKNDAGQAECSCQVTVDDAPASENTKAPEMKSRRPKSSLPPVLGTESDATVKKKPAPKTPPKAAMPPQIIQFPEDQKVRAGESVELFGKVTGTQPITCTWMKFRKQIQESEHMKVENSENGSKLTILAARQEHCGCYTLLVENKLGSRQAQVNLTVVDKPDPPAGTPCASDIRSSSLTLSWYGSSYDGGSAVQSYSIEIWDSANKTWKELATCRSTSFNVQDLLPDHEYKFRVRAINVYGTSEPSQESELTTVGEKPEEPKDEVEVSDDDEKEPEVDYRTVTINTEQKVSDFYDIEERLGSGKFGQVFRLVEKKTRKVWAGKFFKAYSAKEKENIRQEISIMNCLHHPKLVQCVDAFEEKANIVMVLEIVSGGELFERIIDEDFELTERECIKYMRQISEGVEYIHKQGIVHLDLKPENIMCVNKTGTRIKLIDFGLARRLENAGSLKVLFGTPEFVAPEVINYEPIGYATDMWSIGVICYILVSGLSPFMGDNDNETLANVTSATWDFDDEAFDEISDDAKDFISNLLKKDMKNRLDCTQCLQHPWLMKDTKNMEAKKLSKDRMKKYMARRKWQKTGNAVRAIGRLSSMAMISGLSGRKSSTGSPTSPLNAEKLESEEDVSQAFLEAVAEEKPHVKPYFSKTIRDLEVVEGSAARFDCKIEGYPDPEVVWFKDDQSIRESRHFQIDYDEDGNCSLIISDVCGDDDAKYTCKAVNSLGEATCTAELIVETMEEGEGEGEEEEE
EPHB1 (human), sequence (P54762 whole entry, looked up): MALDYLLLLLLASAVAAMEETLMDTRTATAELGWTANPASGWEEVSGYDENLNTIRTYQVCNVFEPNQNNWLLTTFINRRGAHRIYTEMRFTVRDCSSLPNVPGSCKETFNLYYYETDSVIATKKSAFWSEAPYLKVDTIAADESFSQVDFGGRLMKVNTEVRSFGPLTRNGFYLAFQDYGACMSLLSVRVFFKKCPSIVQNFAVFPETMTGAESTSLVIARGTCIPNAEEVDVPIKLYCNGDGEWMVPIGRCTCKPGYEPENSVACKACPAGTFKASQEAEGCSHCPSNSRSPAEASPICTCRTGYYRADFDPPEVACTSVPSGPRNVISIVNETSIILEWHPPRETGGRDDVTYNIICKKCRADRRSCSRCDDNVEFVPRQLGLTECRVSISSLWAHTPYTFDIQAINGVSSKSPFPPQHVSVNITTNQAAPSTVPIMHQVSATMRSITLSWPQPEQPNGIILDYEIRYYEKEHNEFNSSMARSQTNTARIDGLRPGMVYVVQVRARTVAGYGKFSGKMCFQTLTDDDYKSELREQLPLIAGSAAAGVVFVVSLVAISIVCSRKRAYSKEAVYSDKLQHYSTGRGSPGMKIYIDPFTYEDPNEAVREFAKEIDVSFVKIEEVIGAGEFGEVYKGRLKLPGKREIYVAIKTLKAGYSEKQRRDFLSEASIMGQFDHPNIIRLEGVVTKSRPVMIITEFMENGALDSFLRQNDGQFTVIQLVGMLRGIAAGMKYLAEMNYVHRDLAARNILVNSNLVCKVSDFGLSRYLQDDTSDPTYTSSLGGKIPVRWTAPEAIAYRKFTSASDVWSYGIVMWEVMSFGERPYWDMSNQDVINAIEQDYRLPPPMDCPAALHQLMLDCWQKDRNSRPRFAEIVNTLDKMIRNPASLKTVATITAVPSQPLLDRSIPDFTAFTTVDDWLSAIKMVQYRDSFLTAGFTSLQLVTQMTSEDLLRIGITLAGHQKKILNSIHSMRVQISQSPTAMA
LCK (human), sequence (P06239 whole entry, looked up): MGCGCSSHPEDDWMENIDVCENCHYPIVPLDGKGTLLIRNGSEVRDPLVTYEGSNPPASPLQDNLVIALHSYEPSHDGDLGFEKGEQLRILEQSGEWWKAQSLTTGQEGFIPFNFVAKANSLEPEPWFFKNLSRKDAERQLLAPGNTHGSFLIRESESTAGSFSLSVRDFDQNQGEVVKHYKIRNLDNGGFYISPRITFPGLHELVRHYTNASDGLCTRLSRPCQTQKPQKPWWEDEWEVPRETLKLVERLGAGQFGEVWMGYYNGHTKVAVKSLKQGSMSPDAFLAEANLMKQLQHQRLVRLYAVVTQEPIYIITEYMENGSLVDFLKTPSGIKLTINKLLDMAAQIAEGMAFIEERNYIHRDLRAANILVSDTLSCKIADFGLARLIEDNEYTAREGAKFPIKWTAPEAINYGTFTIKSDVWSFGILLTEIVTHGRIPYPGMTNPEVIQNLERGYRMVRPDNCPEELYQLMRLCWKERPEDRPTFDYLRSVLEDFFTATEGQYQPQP
CDK5 (human), sequence (Q00535 whole entry, looked up): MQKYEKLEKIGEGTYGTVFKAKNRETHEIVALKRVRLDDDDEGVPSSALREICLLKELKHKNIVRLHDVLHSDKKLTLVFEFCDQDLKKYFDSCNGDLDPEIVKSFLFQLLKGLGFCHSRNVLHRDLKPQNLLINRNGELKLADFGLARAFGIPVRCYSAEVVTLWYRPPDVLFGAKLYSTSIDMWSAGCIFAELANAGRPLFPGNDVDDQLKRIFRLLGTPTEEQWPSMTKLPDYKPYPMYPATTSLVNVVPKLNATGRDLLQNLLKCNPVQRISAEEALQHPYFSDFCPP

Structure (SMILES)	kinase still bound, per cent of control (ACVR2A (human))	kinase still bound, per cent of control (AKT2 (human))	kinase still bound, per cent of control (ANKK1 (human))	kinase still bound, per cent of control (AURKB (human))	kinase still bound, per cent of control (CAMK2A (human))	kinase still bound, per cent of control (CDK15 (human))	kinase still bound, per cent of control (CDK17 (human))	kinase still bound, per cent of control (CDK5 (human))	kinase still bound, per cent of control (CLK2 (human))	kinase still bound, per cent of control (CSNK2A1 (human))	kinase still bound, per cent of control (DMPK (human))	kinase still bound, per cent of control [1]	kinase still bound, per cent of control (EPHB1 (human))	kinase still bound, per cent of control (ERBB2 (human))	kinase still bound, per cent of control (ERBB4 (human))	kinase still bound, per cent of control (HCK (human))	kinase still bound, per cent of control (LATS2 (human))	kinase still bound, per cent of control (LCK (human))	kinase still bound, per cent of control (MAP2K4 (human))	kinase still bound, per cent of control (MAP3K11 (human))	other results
O=C1Nc2ccc(I)cc2/C1=C/c1cc(Br)c(O)c(Br)c1	100%	90%	12%	9.4%	20%	100%	87%	83%	15%	4.2%	100%	78%	100%	94%	50%	81%	81%	38%	3.4%	38%	kinase still bound, per cent of control (MAP3K9 (human)): 47%; kinase still bound, per cent of control (MAP4K5 (human)): 100%; kinase still bound, per cent of control (MAPK15 (human)): 61%; kinase still bound, per cent of control (MAPK9 (human)): 72%; kinase still bound, per cent of control (MINK1 (human)): 2.8%; kinase still bound, per cent of control (MKNK2 (human)): 89%; kinase still bound, per cent of control (MUSK (human)): 74%; kinase still bound, per cent of control (MYLK (human)): 16%; kinase still bound, per cent of control (NEK1 (human)): 87%; kinase still bound, per cent of control (NTRK1 (human)): 82%; kinase still bound, per cent of control (NTRK2 (human)): 55%; kinase still bound, per cent of control (PAK1 (human)): 100%; kinase still bound, per cent of control (PDGFRB (human)): 5.5%; kinase still bound, per cent of control (PRKACA (human)): 100%; kinase still bound, per cent of control (PRKACB (human)): 100%; kinase still bound, per cent of control (RPS6KA6 KD1 (human)): 51%; kinase still bound, per cent of control (SRPK1 (human)): 40%; kinase still bound, per cent of control (SRPK2 (human)): 87%; kinase still bound, per cent of control (STK17A (human)): 2.5%; kinase still bound, per cent of control (STK33 (human)): 94%
N#Cc1c(NC(=O)c2cccc3ccccc23)sc2c1CCCC2	69%	100%	78%	94%	92%	69%	93%	100%	87%	89%	83%	82%	91%	87%	100%	92%	75%	85%	94%	98%	kinase still bound, per cent of control (MAP3K9 (human)): 72%; kinase still bound, per cent of control (MAP4K5 (human)): 65%; kinase still bound, per cent of control (MAPK15 (human)): 64%; kinase still bound, per cent of control (MAPK9 (human)): 4.8%; kinase still bound, per cent of control (MINK1 (human)): 95%; kinase still bound, per cent of control (MKNK2 (human)): 92%; kinase still bound, per cent of control (MUSK (human)): 97%; kinase still bound, per cent of control (MYLK (human)): 99%; kinase still bound, per cent of control (NEK1 (human)): 100%; kinase still bound, per cent of control (NTRK1 (human)): 100%; kinase still bound, per cent of control (NTRK2 (human)): 100%; kinase still bound, per cent of control (PAK1 (human)): 100%; kinase still bound, per cent of control (PDGFRB (human)): 44%; kinase still bound, per cent of control (PRKACA (human)): 78%; kinase still bound, per cent of control (PRKACB (human)): 80%; kinase still bound, per cent of control (RPS6KA6 KD1 (human)): 70%; kinase still bound, per cent of control (SRPK1 (human)): 100%; kinase still bound, per cent of control (SRPK2 (human)): 100%; kinase still bound, per cent of control (STK17A (human)): 100%; kinase still bound, per cent of control (STK33 (human)): 86%
C=CC(=O)Nc1cccc(Nc2nc(N[C@H]3CC[C@H](N(C)C)CC3)nc3c2ncn3C(C)C)c1	97%	84%	62%	73%	34%	100%	100%	80%	0.5%	54%	8.8%	59%	84%	100%	76%	27%	70%	38%	76%	24%	kinase still bound, per cent of control (MAP3K9 (human)): 17%; kinase still bound, per cent of control (MAP4K5 (human)): 60%; kinase still bound, per cent of control (MAPK15 (human)): 75%; kinase still bound, per cent of control (MAPK9 (human)): 100%; kinase still bound, per cent of control (MINK1 (human)): 27%; kinase still bound, per cent of control (MKNK2 (human)): 39%; kinase still bound, per cent of control (MUSK (human)): 84%; kinase still bound, per cent of control (MYLK (human)): 55%; kinase still bound, per cent of control (NEK1 (human)): 100%; kinase still bound, per cent of control (NTRK1 (human)): 15%; kinase still bound, per cent of control (NTRK2 (human)): 5.3%; kinase still bound, per cent of control (PAK1 (human)): 78%; kinase still bound, per cent of control (PDGFRB (human)): 8.4%; kinase still bound, per cent of control (PRKACA (human)): 100%; kinase still bound, per cent of control (PRKACB (human)): 100%; kinase still bound, per cent of control (RPS6KA6 KD1 (human)): 8.2%; kinase still bound, per cent of control (SRPK1 (human)): 52%; kinase still bound, per cent of control (SRPK2 (human)): 92%; kinase still bound, per cent of control (STK17A (human)): 100%; kinase still bound, per cent of control (STK33 (human)): 15%
